In US10144734B2, “Substituted pyrazolo[1,5-A]pyridine compounds as RET kinase inhibitors” (Array BioPharma, Inc., priority 2016, dated 2018):

Target: HEK-293 cells expressing a Kif5b-RET fusion protein (Homo sapiens, UniProt P07949)
Assay: cell-based

HEK-293 cells expressing a Kif5b-RET fusion protein, sequence (P07949 29-1114 limits assumed): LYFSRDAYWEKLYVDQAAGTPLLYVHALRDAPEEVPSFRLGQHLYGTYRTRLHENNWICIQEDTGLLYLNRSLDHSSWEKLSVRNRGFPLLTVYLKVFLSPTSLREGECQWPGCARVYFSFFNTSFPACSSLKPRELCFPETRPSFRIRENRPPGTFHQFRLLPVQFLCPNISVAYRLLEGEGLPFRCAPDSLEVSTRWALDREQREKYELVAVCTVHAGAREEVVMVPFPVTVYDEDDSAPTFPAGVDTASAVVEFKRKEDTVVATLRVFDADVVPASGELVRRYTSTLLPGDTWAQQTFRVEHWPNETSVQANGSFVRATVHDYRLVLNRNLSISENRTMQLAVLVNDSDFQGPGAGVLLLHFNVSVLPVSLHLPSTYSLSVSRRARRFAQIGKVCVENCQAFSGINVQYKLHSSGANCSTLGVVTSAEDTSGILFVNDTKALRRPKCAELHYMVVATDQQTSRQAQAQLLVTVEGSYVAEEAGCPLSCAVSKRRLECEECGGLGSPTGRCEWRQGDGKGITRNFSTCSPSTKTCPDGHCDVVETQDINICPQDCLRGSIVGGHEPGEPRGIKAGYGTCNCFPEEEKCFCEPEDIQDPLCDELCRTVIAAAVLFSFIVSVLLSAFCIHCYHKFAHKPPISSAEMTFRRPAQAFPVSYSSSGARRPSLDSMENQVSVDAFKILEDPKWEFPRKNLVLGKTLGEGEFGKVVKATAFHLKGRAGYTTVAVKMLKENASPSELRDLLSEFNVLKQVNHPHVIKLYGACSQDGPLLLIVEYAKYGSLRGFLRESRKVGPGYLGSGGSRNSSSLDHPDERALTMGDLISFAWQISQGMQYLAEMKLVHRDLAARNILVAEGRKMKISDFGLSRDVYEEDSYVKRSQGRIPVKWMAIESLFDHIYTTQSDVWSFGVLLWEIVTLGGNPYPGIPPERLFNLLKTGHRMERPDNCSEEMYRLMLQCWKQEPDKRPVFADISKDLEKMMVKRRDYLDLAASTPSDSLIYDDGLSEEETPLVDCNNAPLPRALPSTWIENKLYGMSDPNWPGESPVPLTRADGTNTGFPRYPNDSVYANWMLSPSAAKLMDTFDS

CCOc1cc(-c2ccc(N3C[C@H]4C[C@@H](C3)[C@H]4Nc3nc(C)ccc3F)nc2)c2c(C#N)cnn2c1 [Example 377, 6-ethoxy-4-(6-((1R,5 S,6r)-6-((3-fluoro-6-methylpyridin-2-yl)amino)-3-azabicyclo[3.1.1]heptan-3-yl)pyridin-3-yl)pyrazolo[1,5-a]pyridine-3-carbonitrile]
IC50: 39.4 nM
